In patent US20070129344A1, “Bicyclic 6-alkylidene-penem beta-lactamase inhibitors and beta-lactam antibiotic combination: a broad spectrum antibiotic” (priority 2005, published 2007):
Like-named read-outs stand apart in the source and are kept apart here.

Tests used:
[1] = system: C. freundii GC 4171 TEM-1 + InducibleAmpC; assay: MIC microbroth dilution; β-lactamase class A, C; type: cell-based
Method: (§1) The in vitro activities of the antibiotics were determined by the microbroth dilution method as recommended by the National Committee for Clinical Laboratory Standards (NCCLS). (NCCLS. 2000. Methods for Dilution Antimicrobial Susceptibility Tests for Bacteria That Grow Aerobically; Approved Standards: M7-A5, vol. 19. National Committee for Clinical Laboratory Standards, Villanova, Pa.). Mueller-Hinton II broth (MHBII)(BBL Cockeysville, Md.), was used for the testing procedure. […]. The plates were incubated for 18-22 hours at 35° C. in ambient air.

E. coli GC 1995 (TEM-10) = assay: MIC microbroth dilution; β-lactamase class A (ESBL); type: cell-based; settings: Escherichia coli, Cefepime alone, read-out: MIC
Method: as §1

E. coli GC 6368 (SHV-7) = assay: as above; type: cell-based; settings: Escherichia coli, Cefepime alone, read-out: MIC
Method: as §1

E. coli GC 2400 (TEM-43) = assay: as above; type: cell-based; settings: Cefepime alone
Method: as §1

[2] = system: E. coli GC 2017 (TEM-10 + pl 6.3; 8.1); assay: as above; type: cell-based; settings: Cefepime alone
Method: as §1

E. coli GC 1684 (TEM-10) = assay: as above; type: cell-based; settings: Cefepime alone
Method: as §1

[3] = system: S. typhimurium GC 4197 CTX-M-5; assay: as above; type: cell-based; settings: Cefepime alone
Method: as §1

E. coli GC 2300 (TEM-28) = assay: as above; type: cell-based; settings: Cefepime alone
Method: as §1

[4] = system: E. coli GAR 5929 TEM, OXA, Act-1, CTX (By PCR only); assay: MIC microbroth dilution; β-lactamase class A, C, D; type: cell-based; settings: Cefepime alone
Method: as §1

[5] = system: K. pn GC 6655 (TEM-1 + ACT-1); assay: MIC microbroth dilution; β-lactamase class A, C; type: cell-based, K. pneumoniae; settings: Klebsiella pneumoniae, Cefepime alone, read-out: MIC
Method: as §1

[6] = system: K. pn GC 3104 (MIR-1 + TEM-1); assay: MIC microbroth dilution; β-lactamase class A, C; type: cell-based, K. pneumoniae; settings: Klebsiella pneumoniae, Cefepime alone, read-out: MIC
Method: as §1

[7] = system: K. pn GC 2391 (pl 5.4; 5.6; 7.6; 8.7 B-lactamases); assay: MIC microbroth dilution; β-lactamase class A, A (ESBL), C; type: cell-based, K. pneumoniae; settings: Klebsiella pneumoniae, Cefepime alone, read-out: MIC
Method: as §1

E. coli GC 2920 (IRT-2) = assay: MIC microbroth dilution; β-lactamase class A (IRT); type: cell-based; settings: Cefepime alone
Method: as §1

[8] = system: A. baumannii GC 7687 AmpC; assay: MIC microbroth dilution; β-lactamase class C; type: cell-based; settings: Cefepime alone
Method: as §1

E. coli GC 2894 (AmpC) = assay: MIC microbroth dilution; β-lactamase class C; type: cell-based; settings: Escherichia coli, Cefepime alone, read-out: MIC
Method: as §1

[9] = system: E. cloacae GC 1712 AmpC-inducible; assay: MIC microbroth dilution; β-lactamase class C; type: cell-based; settings: Cefepime alone
Method: as §1

[10] = system: E. aerogenes 1697-MP GC 7845 AmpC; assay: MIC microbroth dilution; β-lactamase class C; type: cell-based; settings: E. aerogenes GC 7845, Cefepime alone
Method: as §1

[11] = system: E. cloacae PT 1494 Inducible AmpC; assay: MIC microbroth dilution; β-lactamase class C; type: cell-based; settings: Cefepime alone
Method: as §1

[12] = system: P. aeruginosa GC 3153 Inducible AmpC; assay: MIC microbroth dilution; β-lactamase class C; type: cell-based; settings: Cefepime alone
Method: as §1

[13] = system: E. cloacae GC 1477 (AmpC); assay: MIC microbroth dilution; β-lactamase class C; type: cell-based; settings: Enterobacter cloacae, Cefepime alone, read-out: MIC
Method: as §1

[14] = system: P. aeruginosa GC 1763 AmpC-inducible; assay: MIC microbroth dilution; β-lactamase class C; type: cell-based; settings: Cefepime alone
Method: as §1

[15] = system: S. marcescens GC 4145 Inducible AmpC; assay: MIC microbroth dilution; β-lactamase class C; type: cell-based; settings: Serratia marcescens, Cefepime alone, read-out: MIC
Method: as §1

E. coli GC 6539 CMY-2 = assay: MIC microbroth dilution; β-lactamase class C; type: cell-based
Method: as §1

[16] = system: K. pneumoniae GC 7824 Fox 5; assay: MIC microbroth dilution; β-lactamase class C; type: cell-based
Method: as §1

[17] = system: C. freundii GC 4164 Inducible AmpC; assay: MIC microbroth dilution; β-lactamase class C; type: cell-based; settings: Cefepime alone
Method: as §1

E. cloacae GC 1475 (P99) = assay: MIC microbroth dilution; β-lactamase class C; type: cell-based; settings: Cefepime alone
Method: as §1

[18] = system: K. pneumoniae GC 7822 Act 1; assay: MIC microbroth dilution; β-lactamase class C; type: cell-based
Method: as §1

[19] = system: S. marcescens GC 4132 (AmpC); assay: MIC microbroth dilution; β-lactamase class C; type: cell-based; settings: Serratia marcescens, Cefepime alone, read-out: MIC
Method: as §1

[20] = system: K. pneumoniae GC 7820 Act 1; assay: MIC microbroth dilution; β-lactamase class C; type: cell-based; settings: Klebsiella pneumoniae, GC7820ACT1, K. pneumoniae GC 7820, Cefepime alone, read-out: MIC
Method: as §1

[21] = system: E. coli GC 4971 OXA-1, TEM-1; assay: MIC microbroth dilution; β-lactamase class A, D; type: cell-based; settings: Escherichia coli, Cefepime alone, read-out: MIC
Method: as §1

[22] = system: E. cloacae GC 7052 SHV-5, Amp C inducable; assay: MIC microbroth dilution; β-lactamase class A (ESBL), C; type: cell-based; settings: Cefepime alone
Method: as §1

[23] = system: E. aerogenes GC 7036 TEM-24, Amp C inducable; assay: as above; type: cell-based; settings: Klebsiella aerogenes, Cefepime alone, read-out: MIC
Method: as §1

[24] = system: E. cloacae GC 7065 TEM-26, SHV-12 Amp C inducable; assay: as above; type: cell-based; settings: Enterobacter cloacae, Cefepime alone, read-out: MIC
Method: as §1

[25] = system: M. morganii GC 1617 TEM-10 + inducible AmpC; assay: as above; type: cell-based; settings: Cefepime alone
Method: as §1

[26] = system: E. aerogenes GC 7039 TEM-4, Amp C inducable; assay: as above; type: cell-based; settings: Klebsiella aerogenes, Cefepime alone, read-out: MIC
Method: as §1

[27] = Escherichia coli, control of Compound 1 test, read-out: MIC
[28] = Enterobacter cloacae, control of Compound 1 test, read-out: MIC
[29] = Pseudomonas aeruginosa, control of Compound 1 test, read-out: MIC
[30] = Cefepime alone, control of Compound 2 test

Measured: MIC

CO/N=C(\C(=O)N[C@@H]1C(=O)N2C(C(=O)[O-])=C(C[N+]3(C)CCCC3)CS[C@H]12)c1csc(N)n1 [Cefepime, reference compound]
8 µg/mL: E. coli GC 1995 (TEM-10); control of Compound 1 test
>16 µg/mL: E. coli GC 2400 (TEM-43); control of Compound 2 test | [2]; control of Compound 2 test | E. coli GC 1684 (TEM-10); control of Compound 2 test | [3]; control of Compound 2 test | [4]; control of Compound 2 test | [18]; [30]
1 µg/mL: E. coli GC 6368 (SHV-7); control of Compound 1 test | [6]; control of Compound 2 test | [15]; control of Compound 1 test | [17]; control of Compound 2 test | [17]; Citrobacter freundii, control of Compound 1 test, read-out: MIC
0.12 µg/mL: [9]; control of Compound 2 test | [9]; [28]
0.25 µg/mL: [10]; control of Compound 2 test | [10]; Klebsiella aerogenes, control of Compound 1 test, read-out: MIC | [11]; control of Compound 2 test | [11]; [28] | [20]; control of Compound 1 test | [25]; control of Compound 2 test | [25]; Morganella morganii, control of Compound 1 test, read-out: MIC
4 µg/mL: [1]; C. freundii GC 4171, Cefepime alone, control of Compound 2 test | [1]; Citrobacter freundii | [5]; control of Compound 2 test | [7]; control of Compound 2 test | E. coli GC 2894 (AmpC); control of Compound 2 test | [13]; control of Compound 1 test | [21]; control of Compound 2 test | [23]; control of Compound 2 test | [24]; control of Compound 1 test
0.5 µg/mL: [6]; control of Compound 1 test | [15]; control of Compound 2 test | [19]; control of Compound 1 test | [20]; control of Compound 2 test
> 16 µg/mL: E. coli GC 2400 (TEM-43); [27] | [2]; [27] | E. coli GC 1684 (TEM-10); [27] | [3]; Salmonella enterica, control of Compound 1 test, read-out: MIC | [4]; [27] | [18]; Klebsiella pneumoniae, GC7822ACT1, Cefepime alone, control of Compound 1 test, read-out: MIC | [26]; control of Compound 2 test
0.06 µg/mL: E. coli GC 2920 (IRT-2); control of Compound 2 test | E. coli GC 2920 (IRT-2); [27]
2 µg/mL: E. coli GC 6368 (SHV-7); control of Compound 2 test | [5]; control of Compound 1 test | E. coli GC 2894 (AmpC); control of Compound 1 test | [13]; control of Compound 2 test | [14]; control of Compound 2 test | [14]; [29] | E. coli GC 6539 CMY-2; [30] | E. coli GC 6539 CMY-2; Escherichia coli, GC6539CMY2, Cefepime alone, control of Compound 1 test, read-out: MIC | [16]; [30] | [16]; Klebsiella pneumoniae, GC7824FOX5, Cefepime alone, control of Compound 1 test, read-out: MIC | E. cloacae GC 1475 (P99); control of Compound 2 test | E. cloacae GC 1475 (P99); [28] | [19]; control of Compound 2 test | [21]; control of Compound 1 test | [23]; control of Compound 1 test
16 µg/mL: E. coli GC 1995 (TEM-10); control of Compound 2 test | E. coli GC 2300 (TEM-28); control of Compound 2 test | E. coli GC 2300 (TEM-28); [27] | [7]; control of Compound 1 test | [8]; Acinetobacter baumannii, GC7687AMPC, control of Compound 1 test, read-out: MIC | [8]; control of Compound 2 test | [12]; control of Compound 2 test | [12]; [29] | [22]; control of Compound 2 test | [22]; [28] | [24]; control of Compound 2 test | [26]; control of Compound 1 test
